Laboratory results: ChEMBL document CHEMBL5120923, “Tamarixetin Attenuated the Virulence of Staphylococcus aureus by Directly Targeting Caseinolytic Protease P” (J Nat Prod, 2022)
Values after ≈ are worked out from the molar mass of the structure shown. Active and inactive are the calls of the source. No cut-off for these calls is given here.

How the values were obtained:
[1] = tested on: Staphylococcus aureus; experiment: Inhibition of agr gene transcription level in methicillin-resistant Staphylococcus aureus USA300 at 64 ug/ml by qPCR analysis; format: functional; settings: dose 64.0 µg/ml
[2] = tested on: Staphylococcus aureus; experiment: Inhibition of RNAIII gene transcription level in methicillin-resistant Staphylococcus aureus USA300 at 64 ug/ml by qPCR analysis; format: functional; settings: dose 64.0 µg/ml
[3] = tested on: Staphylococcus aureus; experiment: (§1) Antibacterial activity against methicillin-resistant Staphylococcus aureus USA300 infected in C57BL/6J mouse pneumonia model assessed as reduction in IL-6 level in lung at 100 mg/Kg, sc administered every 12 hrs measured after 48 hrs by ELISA; format: functional, organism-based
[4] = tested on: HEK-293T; experiment: Cytotoxicity against human HEK-293T cells at 64 ug/ml by MTT assay; format: toxicity, cell-based; settings: dose 64 µg/ml
[5] = tested on: Staphylococcus aureus; experiment: as §1, with “infiltration of inflammatory cells” for “IL-6 level”, “alveoli” for “lung”, “hematoxylin and eosin staining based histopathological analysis” for “ELISA”; format: functional, organism-based
[6] = tested on: Staphylococcus aureus; experiment: Antibacterial activity against methicillin-resistant Staphylococcus aureus USA300 infected in C57BL/6J mouse pneumonia model assessed as reduction in IFN-gamma level in lung at 100 mg/Kg, sc administered every 12 hrs measured after 48 hrs by ELISA; format: functional, organism-based
[7] = tested on: Staphylococcus aureus; experiment: Inhibition of methicillin-resistant Staphylococcus aureus USA300 ClpP using Suc-LY-AMC as fluorescent substrate at 64 ug/ml preincubated for 1 hr followed by substrate addition and measured after 1 hr by FRET assay relative to control; settings: dose 64.0 µg/ml, time 2.0 hrs
[8] = tested on: Staphylococcus aureus; experiment: Synergistic […] activity against Cmethicillin-resistant Staphylococcus aureus USA300 assessed as fractional inhibitory concentration index at 64 ug/ml in presence of cefotaxime by checker board method; format: functional; settings: dose 64 µg/ml
[9] = tested on: Staphylococcus aureus; experiment: Antibacterial activity against methicillin-resistant Staphylococcus aureus USA300 harboring delta ClpP mutant infected in C57BL/6J mouse pneumonia model assessed as reduction in mortality rate at 50 mg/Kg, sc administered every 12 hrs measured after 72 hrs (Rvb =80%); format: functional; design: scale not given: the % may be the effect or the level left
[10] = tested on: Staphylococcus aureus; experiment: Inhibition of hla gene transcription level in methicillin-resistant Staphylococcus aureus USA300 at 64 ug/ml by qPCR analysis; format: functional; settings: dose 64.0 µg/ml
[11] = tested on: Staphylococcus aureus; experiment: Binding affinity to methicillin-resistant Staphylococcus aureus USA300 ClpP assessed as change in thermal stability by measuring protein deposition at 64 ug/ml by measured after 1 hr by cellular thermal shift assay (reference value: 65 degC); settings: dose 64.0 µg/ml
[12] = tested on: Staphylococcus aureus; experiment: Binding affinity to methicillin-resistant Staphylococcus aureus USA300 ClpP assessed as association rate constant by surface plasmon resonance assay
[13] = tested on: Staphylococcus aureus; experiment: Antibacterial activity against methicillin-resistant Staphylococcus aureus USA300 harboring delta ClpP mutant infected in C57BL/6J mouse pneumonia model assessed as reduction in infiltration of inflammatory cells in alveoli at 100 mg/Kg, sc administered every 12 hrs measured after 48 hrs by hematoxylin and eosin staining based histopathological analysis; format: functional, organism-based
[14] = tested on: Staphylococcus aureus; experiment: Inhibition of spa gene transcription level in methicillin-resistant Staphylococcus aureus USA300 at 64 ug/ml by qPCR analysis; format: functional; settings: dose 64.0 µg/ml
[15] = tested on: Staphylococcus aureus; experiment: Antibacterial activity against methicillin-resistant Staphylococcus aureus USA300 incubated for 24 hrs by microdilution broth assay; format: functional
[16] = tested on: Staphylococcus aureus; experiment: Inhibition of PSM-alpha gene transcription level in methicillin-resistant Staphylococcus aureus USA300 at 64 ug/ml by qPCR analysis; format: functional; settings: dose 64.0 µg/ml
[17] = tested on: Staphylococcus aureus; experiment: Binding affinity to methicillin-resistant Staphylococcus aureus USA300 ClpP assessed as decrease in thermal stability of the protein at 16 to 64 ug/ml by SYPRO orange thermal shift assay; settings: dose 16-64 µg/ml
[18] = Inhibition of agrA gene transcription level in methicillin-resistant Staphylococcus aureus USA300 at 64 ug/ml by qPCR analysis; format: functional
[19] = tested on: Staphylococcus aureus; experiment: Binding affinity to methicillin-resistant Staphylococcus aureus USA300 ClpP assessed as dissociation rate constant by surface plasmon resonance assay
[20] = tested on: HepG2; experiment: Cytotoxicity against human HepG2 cells at 64 ug/ml by MTT assay; format: toxicity, cell-based; settings: dose 64 µg/ml
[21] = tested on: Staphylococcus aureus; experiment: Inhibition of PVL protein expression in methicillin-resistant Staphylococcus aureus Newman incubated for overnight by western blot analysis; format: functional; settings: DDE = dose-dependent effect
[22] = tested on: Staphylococcus aureus; experiment: (§2) Synergistic antibacterial activity against methicillin-resistant Staphylococcus aureus USA300 infected in C57BL/6J mouse pneumonia model assessed as lethality at 50 mg/Kg, sc administered every 12 hrs measured after 72 hrs in presence of cefotaxime (Rvb =40%); format: functional
[23] = tested on: Staphylococcus aureus; experiment: Inhibition of PVL protein expression in methicillin-resistant Staphylococcus aureus USA300 incubated for overnight by western blot analysis; format: functional; settings: DDE = dose-dependent effect
[24] = tested on: Staphylococcus aureus; experiment: Inhibition of pvl gene transcription level in methicillin-resistant Staphylococcus aureus USA300 at 64 ug/ml by qPCR analysis; format: functional; settings: dose 64.0 µg/ml
[25] = tested on: Staphylococcus aureus; experiment: Antibacterial activity against methicillin-resistant Staphylococcus aureus USA300 infected in C57BL/6J mouse pneumonia model assessed as reduction in TNF-alpha level in lung at 100 mg/Kg, sc administered every 12 hrs measured after 48 hrs by ELISA; format: functional, organism-based
[26] = tested on: Staphylococcus aureus; experiment: Antibacterial activity against methicillin-resistant Staphylococcus aureus USA300 harboring ClpP delta mutant assessed as inhibition of bacteria-mediated hemolytic activity on rabbit erythrocytes at 128 ug/ml incubated for 30 mins by hemolysis assay; format: functional; settings: USA300, 0.5 h
[27] = tested on: Staphylococcus aureus; experiment: Inhibition of methicillin-resistant Staphylococcus aureus USA300 ClpP assessed as upregulation of urease production at 64 ug/ml incubated for 4 hr by spectrophotometry; settings: dose 64.0 µg/ml
[28] = Binding affinity to methicillin-resistant Staphylococcus aureus USA300 ClpP assessed as dissociation constant by surface plasmon resonance assay
[29] = tested on: Staphylococcus aureus; experiment: as §2, with “reduction in bacterial load in lung” for “lethality”, “100” for “50”, “48” for “72”, “(reference value: 7.72 +/- 0.50 log10CFU/g)” for “(Rvb =40%)”; format: functional
[30] = tested on: Staphylococcus aureus; experiment: as §1, with “bacterial load” for “IL-6 level”, “in presence of cefotaxime (reference value: 10.04+/- 0.56 log10CFU/g)” for “by ELISA”; format: functional
[31] = tested on: Staphylococcus aureus; experiment: Synergistic antibacterial activity against methicillin-resistant Staphylococcus aureus USA300 infected in C57BL/6J mouse pneumonia model assessed as reduction in infiltration of inflammatory cells in alveoli at 100 mg/Kg, sc administered every 12 hrs measured after 48 hrs in presence of cefotaxime by hematoxylin and eosin staining based histopathological analysis; format: functional, organism-based
[32] = tested on: Staphylococcus aureus; experiment: Synergistic antibacterial activity against methicillin-resistant Staphylococcus aureus USA300 assessed as cefotaxime MIC by checker board method; format: functional
[33] = tested on: Staphylococcus aureus; experiment: Antibacterial activity against methicillin-resistant Staphylococcus aureus USA300 assessed as inhibition of bacteria-mediated hemolytic activity on rabbit erythrocytes at 128 ug/ml incubated for 30 mins by hemolysis assay; format: functional; settings: USA300, 0.5 h
[34] = tested on: A549; experiment: Cytotoxicity against human A549 cells at 64 ug/ml by MTT assay; format: toxicity, cell-based; settings: dose 64 µg/ml
[35] = Inhibition of methicillin-resistant Staphylococcus aureus USA300 ClpP using Suc-LY-AMC as fluorescent substrate preincubated for 1 hr followed by substrate addition and measured after 1 hr by FRET assay

COc1ccc(-c2oc3cc(O)cc(O)c3c(=O)c2O)cc1O [TAMARIXETIN]
inhibition [1]: Active | inhibition [2]: Active | Activity [3]: Active | Activity [4]: Non-Toxic | Activity [5]: Active | Activity [6]: Active | inhibition [7]: 2.5% | fractional inhibitory concentration index (FICI) [8]: 0.375 | Activity [9]: 70% | inhibition [10]: Active | Activity [11]: Active | Ka [12]: 1.69 10^3/M/s | Activity [13]: Active | inhibition [14]: Active | MIC [15]: 512 µg/mL (≈ 1620 µM) | inhibition [16]: Active | ΔTm [17]: > 2 °C | inhibition at 64 µg/mL [18]: 83.9% | Kdiss [19]: 4.26 10^-3/s | Activity [20]: Non-Toxic | inhibition [21]: Dde | Activity [22]: 20% | inhibition [23]: Dde | inhibition [24]: Active | Activity [25]: Active | inhibition at 128 µg/mL [26]: 85.8% | inhibition [27]: Active | Kd [28]: 2.52 µM | Activity [29]: 7.03 log10CFU/g | Activity [30]: 7.03 log10CFU/g | Activity [31]: Active | MIC [32]: 16 µg/mL | inhibition at 128 µg/mL [33]: > 55% | Activity [34]: Non-Toxic | IC50 [35]: 49.7 µM
